According to patent US11839679B2, “Gamma-diketones for treatment and prevention of aging skin and wrinkles” (BioSplice Therapeutics, Inc., priority 2014, dated 2023):

Test system: fine lines, wrinkles in the outer canthus of the eyes (crow's feet area)
Experiment: Panelist self-assessment questionnaire, Example 1
Format: in vivo, human
Conditions: for Q2 appearance of my skin around either of my eyes, Average Score: Score 1 (Better) to 5 (Worse); for Q4 any discomfort, other than slight tingling, in the treated area during the study, Average Score: Score 1 (No) to 5 (Yes, everyday lasting more than an hour); for Q1 My wrinkles in the eye area have improved, Average Score: Score 1 (Strongly agree) to 5 (Strongly disagree); for Q3 how do you feel about the treated area surrounding your eyes and the appearance of wrinkles, Average Score: Score 1 (Very Satisfied) to 5 (Very Dissatisfied); for Q2 appearance of my skin around either of my eyes, % Responders Score 1: Score 1 = Better; for Q4 any discomfort, other than slight tingling, in the treated area during the study, % Responders Score 1: Score 1 = No; for Q1 My wrinkles in the eye area have improved, % Responders Score 1: Score 1 = Strongly agree; for Q3 how do you feel about the treated area surrounding your eyes and the appearance of wrinkles, % Responders Score 1: Score 1 = Very Satisfied; for Q1 My wrinkles in the eye area have improved, % Responders Score 2: Score 2 = Agree; for Q2 appearance of my skin around either of my eyes, % Responders Score 2: Score 2 = Little better; for Q3 how do you feel about the treated area surrounding your eyes and the appearance of wrinkles, % Responders Score 2: Score 2 = Satisfied; for Q4 any discomfort, other than slight tingling, in the treated area during the study, % Responders Score 2: Score 2 = Yes, occasional discomfort lasting less than an hour; for Q1 My wrinkles in the eye area have improved, % Responders Score 3: Score 3 = Neither agree or disagree
Protocol: Three groups of women were recruited to evaluate and compare the efficacy of three anti-aging test products (targeting the periorbital eye area) intended to reduce the appearance of fine lines, wrinkles in the outer canthus of the eyes (crow's feet area) over a 12 week period. Wrinkle assessment was conducted instrumentally using a Visioscan image analysis system. Effectiveness of the test product was evaluated using panelist self-assessment via questionnaire responses comprised of 3-4 questions (Q1, Q2, Q3 & Q4). Each stage in the progression of treatments was photographically documented using a High Resolution Scientifically Matched Photography technique. Image analysis was utilized to quantify changes in fine lines and crow's feet condition observed in the Scientifically Matched Photographs.
Subject Selection: • Number: Six subjects (two per group) to complete the study. • Sex: Females • Race: Caucasian/Asian/Hispanic • Age Range: 40 through 60 years old
Test samples: • Topical 0.15% of Compound #222 in Oil (a 50/50 mixture of • Propylene Glycol Dicaprylate/Dicaprate and Caprylic/Capric Triglyceride) (Cohort 1) • Topical 0.15% of Compound #222 in PEG400 (Cohort 2) • Topical 0.05% of Compound #222 in PEG400 (Cohort 3)
All subjects were instructed to use the test material once a day, as part of their daily skin care routine. Immediately following baseline evaluations, the subjects were issued the product with the following instructions:
GROUP 1—Compound #222 Topical 0.15% in oil (Cohort 1): The subjects were instructed to hold the bottle at an angle such that the roller-ball was at bottom and apply the roller-ball to the periorbital area, including the crow's feet area, 2-3 times, starting from the area under the eye (and above the cheekbone) and moving up towards the outer tip of the eye-brow. After 2-3 rolls, they were able to see wetness on the treated area. This procedure was repeated for the other eye.
GROUPS 2 & 3 Compound #222 Topical 0.15% in PEG (Cohort 2) & Compound #222 Topical 0.05% in PEG (Cohort 3): The subjects were instructed to hold the dispenser upright with one hand and with the tip of the index finger on the pump (similar to holding a spray container), pour a small amount of the product into the palm of their other hand by pumping once or twice. The product was then applied on to the periorbital area, including the crow's feet area, of both eyes with their index finger.
[…] After acclimating to ambient conditions, High Resolution Scientifically Matched Photographs were be taken and biophysical measurements (Surface Evaluation of Living Skin via Visioscan) were repeated using the standard template to identify test sites on the face. In addition (during the acclimation period) all participants were be asked to fill out a self-assessment questionnaire.
The source data was Visioscan and PhotoGrammetrix Image Analysis readings along with subjective assessments, which were totaled and reported as average scores. Photographs were placed side by side as to compare the photographs of before and after application of the test product in the eye area. Wrinkle reduction analysis source data consisted of crow's feet area quantification in relative units (px), collected at baseline and, the week 2, 4, 8 and 12 evaluations. The data obtained via Visioscan and from PhotoGrammetrix Image Analysis was quoted as % differences from baseline at each of the previously described time points. A paired t-test analysis was conducted in order to compare the results of post test product application measurements to baseline measurements where applicable. Statistical significance was established if p≤(α=0.05) was calculated.

[1] = Day 7, Topical 0.05% in PEG (Cohort 3)
[2] = Day 7, Topical 0.15% in Oil (Cohort 1)
[3] = Day 7, Topical 0.15% in PEG (Cohort 2)
[4] = Day 14, Topical 0.05% in PEG (Cohort 3)
[5] = Day 14, Topical 0.15% in Oil (Cohort 1)
[6] = Day 14, Topical 0.15% in PEG (Cohort 2)

O=C(CCC(=O)c1ccc2c(c1)OCO2)c1ccccc1 [#222]
50%: Q2 appearance of my skin around either of my eyes, % Responders Score 1 [1] | Q2 appearance of my skin around either of my eyes, % Responders Score 1 [4] | Q4 any discomfort, other than slight tingling, in the treated area during the study, % Responders Score 1 [2] | Q4 any discomfort, other than slight tingling, in the treated area during the study, % Responders Score 1 [3] | Q4 any discomfort, other than slight tingling, in the treated area during the study, % Responders Score 1 [5] | Q4 any discomfort, other than slight tingling, in the treated area during the study, % Responders Score 1 [6] | Q1 My wrinkles in the eye area have improved, % Responders Score 1 [4] | Q3 how do you feel about the treated area surrounding your eyes and the appearance of wrinkles, % Responders Score 1 [1] | Q3 how do you feel about the treated area surrounding your eyes and the appearance of wrinkles, % Responders Score 1 [4] | Q3 how do you feel about the treated area surrounding your eyes and the appearance of wrinkles, % Responders Score 1 [5] | Q1 My wrinkles in the eye area have improved, % Responders Score 2 [2] | Q1 My wrinkles in the eye area have improved, % Responders Score 2 [4] | Q1 My wrinkles in the eye area have improved, % Responders Score 2 [5] | Q1 My wrinkles in the eye area have improved, % Responders Score 2 [6] | Q2 appearance of my skin around either of my eyes, % Responders Score 2 [1] | Q2 appearance of my skin around either of my eyes, % Responders Score 2 [2] | Q2 appearance of my skin around either of my eyes, % Responders Score 2 [3] | Q2 appearance of my skin around either of my eyes, % Responders Score 2 [4] | Q2 appearance of my skin around either of my eyes, % Responders Score 2 [5] | Q2 appearance of my skin around either of my eyes, % Responders Score 2 [6] | Q3 how do you feel about the treated area surrounding your eyes and the appearance of wrinkles, % Responders Score 2 [2] | Q3 how do you feel about the treated area surrounding your eyes and the appearance of wrinkles, % Responders Score 2 [3] | Q3 how do you feel about the treated area surrounding your eyes and the appearance of wrinkles, % Responders Score 2 [4] | Q3 how do you feel about the treated area surrounding your eyes and the appearance of wrinkles, % Responders Score 2 [6] | Q4 any discomfort, other than slight tingling, in the treated area during the study, % Responders Score 2 [2] | Q4 any discomfort, other than slight tingling, in the treated area during the study, % Responders Score 2 [3] | Q4 any discomfort, other than slight tingling, in the treated area during the study, % Responders Score 2 [5] | Q1 My wrinkles in the eye area have improved, % Responders Score 3 [3]
2.50: Q2 appearance of my skin around either of my eyes, Average Score [2] | Q3 how do you feel about the treated area surrounding your eyes and the appearance of wrinkles, Average Score [2] | Q2 appearance of my skin around either of my eyes, Average Score [3] | Q3 how do you feel about the treated area surrounding your eyes and the appearance of wrinkles, Average Score [3] | Q2 appearance of my skin around either of my eyes, Average Score [5] | Q2 appearance of my skin around either of my eyes, Average Score [6] | Q4 any discomfort, other than slight tingling, in the treated area during the study, Average Score [6]
2.00: Q1 My wrinkles in the eye area have improved, Average Score [1] | Q3 how do you feel about the treated area surrounding your eyes and the appearance of wrinkles, Average Score [1] | Q3 how do you feel about the treated area surrounding your eyes and the appearance of wrinkles, Average Score [5]
0%: Q2 appearance of my skin around either of my eyes, % Responders Score 1 [2] | Q2 appearance of my skin around either of my eyes, % Responders Score 1 [3] | Q2 appearance of my skin around either of my eyes, % Responders Score 1 [5] | Q2 appearance of my skin around either of my eyes, % Responders Score 1 [6] | Q1 My wrinkles in the eye area have improved, % Responders Score 1 [1] | Q1 My wrinkles in the eye area have improved, % Responders Score 1 [2] | Q1 My wrinkles in the eye area have improved, % Responders Score 1 [3] | Q1 My wrinkles in the eye area have improved, % Responders Score 1 [5] | Q1 My wrinkles in the eye area have improved, % Responders Score 1 [6] | Q3 how do you feel about the treated area surrounding your eyes and the appearance of wrinkles, % Responders Score 1 [2] | Q3 how do you feel about the treated area surrounding your eyes and the appearance of wrinkles, % Responders Score 1 [3] | Q3 how do you feel about the treated area surrounding your eyes and the appearance of wrinkles, % Responders Score 1 [6] | Q1 My wrinkles in the eye area have improved, % Responders Score 2 [3] | Q3 how do you feel about the treated area surrounding your eyes and the appearance of wrinkles, % Responders Score 2 [1] | Q3 how do you feel about the treated area surrounding your eyes and the appearance of wrinkles, % Responders Score 2 [5] | Q4 any discomfort, other than slight tingling, in the treated area during the study, % Responders Score 2 [1] | Q4 any discomfort, other than slight tingling, in the treated area during the study, % Responders Score 2 [4] | Q4 any discomfort, other than slight tingling, in the treated area during the study, % Responders Score 2 [6] | Q1 My wrinkles in the eye area have improved, % Responders Score 3 [1] | Q1 My wrinkles in the eye area have improved, % Responders Score 3 [2] | Q1 My wrinkles in the eye area have improved, % Responders Score 3 [4] | Q1 My wrinkles in the eye area have improved, % Responders Score 3 [5] | Q1 My wrinkles in the eye area have improved, % Responders Score 3 [6]
3.50: Q1 My wrinkles in the eye area have improved, Average Score [2] | Q1 My wrinkles in the eye area have improved, Average Score [3]
100%: Q4 any discomfort, other than slight tingling, in the treated area during the study, % Responders Score 1 [1] | Q4 any discomfort, other than slight tingling, in the treated area during the study, % Responders Score 1 [4] | Q1 My wrinkles in the eye area have improved, % Responders Score 2 [1]
3.00: Q1 My wrinkles in the eye area have improved, Average Score [5] | Q1 My wrinkles in the eye area have improved, Average Score [6] | Q3 how do you feel about the treated area surrounding your eyes and the appearance of wrinkles, Average Score [6]
1.00: Q4 any discomfort, other than slight tingling, in the treated area during the study, Average Score [1] | Q4 any discomfort, other than slight tingling, in the treated area during the study, Average Score [4]
1.50: Q2 appearance of my skin around either of my eyes, Average Score [1] | Q4 any discomfort, other than slight tingling, in the treated area during the study, Average Score [2] | Q4 any discomfort, other than slight tingling, in the treated area during the study, Average Score [3] | Q2 appearance of my skin around either of my eyes, Average Score [4] | Q1 My wrinkles in the eye area have improved, Average Score [4] | Q3 how do you feel about the treated area surrounding your eyes and the appearance of wrinkles, Average Score [4] | Q4 any discomfort, other than slight tingling, in the treated area during the study, Average Score [5]
